Measurements reported in ChEMBL document CHEMBL1121424, “Orally active cephalosporins and penicillins” (J Med Chem, 1980).
≈ marks a conversion by molar mass, not a printed value.

tested on: Streptococcus pyogenes; experiment: Tested for inhibition of visible growth of Streptococcus pyogenes; type: functional

Row | MIC [µg/mL] | SMILES
1 | 1.6 (≈ 3.26 µM) | N[C@H](C(=O)NC1C(=O)N2C(C(=O)O)=C(CSc3c[nH]nn3)CSC12)c1ccc2c(c1)OCO2 (stereo partly specified)
2 | 0.1 (≈ 0.222 µM) | CC(=O)OCC1=C(C(=O)O)N2C(=O)C(NC(=O)C(O)c3ccc4c(c3)OCO4)C2SC1 (racemic)
3 | 0.4 (≈ 1.03 µM) | CC1=C(C(=O)O)N2C(=O)C(NC(=O)C(N)c3ccc4c(c3)CCO4)C2SC1 (racemic)
4 | 0.1 (≈ 0.223 µM) | CC(=O)OCC1=C(C(=O)O)N2C(=O)C(NC(=O)[C@H](N)c3ccc4c(c3)CCO4)C2SC1 (stereo partly specified)
5 | 0.2 (≈ 0.445 µM) | CC(=O)OCC1=C(C(=O)O)N2C(=O)C(NC(=O)C(N)c3cccc4c3OCO4)C2SC1 (racemic)

tested on: Klebsiella pneumoniae; experiment: Tested for inhibition of visible growth of Klebsiella pneumoniae; type: functional

Row | MIC [µg/mL] | SMILES
6 | > 50 | N[C@H](C(=O)NC1C(=O)N2C(C(=O)O)=C(CSc3c[nH]nn3)CSC12)c1ccc2c(c1)OCO2 (stereo partly specified)
7 | 25 (≈ 55.5 µM) | CC(=O)OCC1=C(C(=O)O)N2C(=O)C(NC(=O)C(O)c3ccc4c(c3)OCO4)C2SC1 (racemic)
8 | 50 (≈ 128 µM) | CC1=C(C(=O)O)N2C(=O)C(NC(=O)C(N)c3ccc4c(c3)CCO4)C2SC1 (racemic)
9 | 6.2 (≈ 13.9 µM) | CC(=O)OCC1=C(C(=O)O)N2C(=O)C(NC(=O)[C@H](N)c3ccc4c(c3)CCO4)C2SC1 (stereo partly specified)
10 | 50 (≈ 111 µM) | CC(=O)OCC1=C(C(=O)O)N2C(=O)C(NC(=O)C(N)c3cccc4c3OCO4)C2SC1 (racemic)

tested on: Staphylococcus aureus; experiment: Tested for inhibition of visible growth of Staphylococcus aureus; type: functional

Row | MIC [µg/mL] | SMILES
11 | 3.1 (≈ 6.88 µM) | CC(=O)OCC1=C(C(=O)O)N2C(=O)C(NC(=O)C(O)c3ccc4c(c3)OCO4)C2SC1 (racemic)
12 | 3.1 (≈ 7.96 µM) | CC1=C(C(=O)O)N2C(=O)C(NC(=O)C(N)c3ccc4c(c3)CCO4)C2SC1 (racemic)
13 | 3.1 (≈ 6.93 µM) | CC(=O)OCC1=C(C(=O)O)N2C(=O)C(NC(=O)[C@H](N)c3ccc4c(c3)CCO4)C2SC1 (stereo partly specified)
14 | 3.1 (≈ 6.9 µM) | CC(=O)OCC1=C(C(=O)O)N2C(=O)C(NC(=O)C(N)c3cccc4c3OCO4)C2SC1 (racemic)

tested on: Proteus mirabilis; experiment: Tested for inhibition of visible growth of Proteus mirabilis; type: functional

Row | MIC [µg/mL] | SMILES
15 | > 50 | N[C@H](C(=O)NC1C(=O)N2C(C(=O)O)=C(CSc3c[nH]nn3)CSC12)c1ccc2c(c1)OCO2 (stereo partly specified)
16 | 50 (≈ 111 µM) | CC(=O)OCC1=C(C(=O)O)N2C(=O)C(NC(=O)C(O)c3ccc4c(c3)OCO4)C2SC1 (racemic)
17 | > 200 | CC1=C(C(=O)O)N2C(=O)C(NC(=O)C(N)c3ccc4c(c3)CCO4)C2SC1 (racemic)
18 | 50 (≈ 112 µM) | CC(=O)OCC1=C(C(=O)O)N2C(=O)C(NC(=O)[C@H](N)c3ccc4c(c3)CCO4)C2SC1 (stereo partly specified)
19 | 100 (≈ 222 µM) | CC(=O)OCC1=C(C(=O)O)N2C(=O)C(NC(=O)C(N)c3cccc4c3OCO4)C2SC1 (racemic)

tested on: Enterobacter cloacae; experiment: Tested for inhibition of visible growth of Enterobacter cloacae; type: functional

Row | MIC [µg/mL] | SMILES
20 | > 200 | CC(=O)OCC1=C(C(=O)O)N2C(=O)C(NC(=O)C(O)c3ccc4c(c3)OCO4)C2SC1 (racemic)
21 | > 200 | CC1=C(C(=O)O)N2C(=O)C(NC(=O)C(N)c3ccc4c(c3)CCO4)C2SC1 (racemic)
22 | 100 (≈ 223 µM) | CC(=O)OCC1=C(C(=O)O)N2C(=O)C(NC(=O)[C@H](N)c3ccc4c(c3)CCO4)C2SC1 (stereo partly specified)
23 | > 200 | CC(=O)OCC1=C(C(=O)O)N2C(=O)C(NC(=O)C(N)c3cccc4c3OCO4)C2SC1 (racemic)

tested on: Klebsiella aerogenes; experiment: Tested for inhibition of visible growth of Enterobacter aerogenes; type: functional

Row | MIC [µg/mL] | SMILES
24 | > 200 | CC(=O)OCC1=C(C(=O)O)N2C(=O)C(NC(=O)C(O)c3ccc4c(c3)OCO4)C2SC1 (racemic)
25 | > 200 | CC1=C(C(=O)O)N2C(=O)C(NC(=O)C(N)c3ccc4c(c3)CCO4)C2SC1 (racemic)
26 | 100 (≈ 223 µM) | CC(=O)OCC1=C(C(=O)O)N2C(=O)C(NC(=O)[C@H](N)c3ccc4c(c3)CCO4)C2SC1 (stereo partly specified)
27 | > 200 | CC(=O)OCC1=C(C(=O)O)N2C(=O)C(NC(=O)C(N)c3cccc4c3OCO4)C2SC1 (racemic)

tested on: not listed separately; experiment: Tested for inhibition of visible growth of Salmonella schottmuelleri; type: functional

Row | MIC [µg/mL] | SMILES
28 | 50 (≈ 102 µM) | N[C@H](C(=O)NC1C(=O)N2C(C(=O)O)=C(CSc3c[nH]nn3)CSC12)c1ccc2c(c1)OCO2 (stereo partly specified)
29 | 6.2 (≈ 13.8 µM) | CC(=O)OCC1=C(C(=O)O)N2C(=O)C(NC(=O)C(O)c3ccc4c(c3)OCO4)C2SC1 (racemic)
30 | 50 (≈ 128 µM) | CC1=C(C(=O)O)N2C(=O)C(NC(=O)C(N)c3ccc4c(c3)CCO4)C2SC1 (racemic)
31 | 3.1 (≈ 6.93 µM) | CC(=O)OCC1=C(C(=O)O)N2C(=O)C(NC(=O)[C@H](N)c3ccc4c(c3)CCO4)C2SC1 (stereo partly specified)
32 | 25 (≈ 55.6 µM) | CC(=O)OCC1=C(C(=O)O)N2C(=O)C(NC(=O)C(N)c3cccc4c3OCO4)C2SC1 (racemic)

tested on: Enterococcus faecalis; experiment: Tested for inhibition of visible growth of Streptococcus faecalis; type: functional

Row | MIC [µg/mL] | SMILES
33 | > 100 | N[C@H](C(=O)NC1C(=O)N2C(C(=O)O)=C(CSc3c[nH]nn3)CSC12)c1ccc2c(c1)OCO2 (stereo partly specified)
34 | > 200 | CC(=O)OCC1=C(C(=O)O)N2C(=O)C(NC(=O)C(O)c3ccc4c(c3)OCO4)C2SC1 (racemic)
35 | > 200 | CC1=C(C(=O)O)N2C(=O)C(NC(=O)C(N)c3ccc4c(c3)CCO4)C2SC1 (racemic)
36 | 50 (≈ 112 µM) | CC(=O)OCC1=C(C(=O)O)N2C(=O)C(NC(=O)[C@H](N)c3ccc4c(c3)CCO4)C2SC1 (stereo partly specified)
37 | 200 (≈ 445 µM) | CC(=O)OCC1=C(C(=O)O)N2C(=O)C(NC(=O)C(N)c3cccc4c3OCO4)C2SC1 (racemic)

tested on: Escherichia coli; experiment: Tested for inhibition of visible growth of Escherichia coli; type: functional

Row | MIC [µg/mL] | SMILES
38 | > 50 | N[C@H](C(=O)NC1C(=O)N2C(C(=O)O)=C(CSc3c[nH]nn3)CSC12)c1ccc2c(c1)OCO2 (stereo partly specified)
39 | 25 (≈ 55.5 µM) | CC(=O)OCC1=C(C(=O)O)N2C(=O)C(NC(=O)C(O)c3ccc4c(c3)OCO4)C2SC1 (racemic)
40 | 100 (≈ 257 µM) | CC1=C(C(=O)O)N2C(=O)C(NC(=O)C(N)c3ccc4c(c3)CCO4)C2SC1 (racemic)
41 | 25 (≈ 55.9 µM) | CC(=O)OCC1=C(C(=O)O)N2C(=O)C(NC(=O)[C@H](N)c3ccc4c(c3)CCO4)C2SC1 (stereo partly specified)
42 | 100 (≈ 222 µM) | CC(=O)OCC1=C(C(=O)O)N2C(=O)C(NC(=O)C(N)c3cccc4c3OCO4)C2SC1 (racemic)

tested on: Streptococcus pneumoniae; experiment: Tested for inhibition of visible growth of Streptococcus pneumoniae; type: functional

Row | MIC [µg/mL] | SMILES
43 | 0.1 (≈ 0.222 µM) | CC(=O)OCC1=C(C(=O)O)N2C(=O)C(NC(=O)C(O)c3ccc4c(c3)OCO4)C2SC1 (racemic)
44 | 3.1 (≈ 7.96 µM) | CC1=C(C(=O)O)N2C(=O)C(NC(=O)C(N)c3ccc4c(c3)CCO4)C2SC1 (racemic)
45 | 0.1 (≈ 0.223 µM) | CC(=O)OCC1=C(C(=O)O)N2C(=O)C(NC(=O)[C@H](N)c3ccc4c(c3)CCO4)C2SC1 (stereo partly specified)
46 | 0.2 (≈ 0.445 µM) | CC(=O)OCC1=C(C(=O)O)N2C(=O)C(NC(=O)C(N)c3cccc4c3OCO4)C2SC1 (racemic)

tested on: Staphylococcus aureus; experiment: Tested for inhibition of visible growth of Staphylococcus aureus, benzyl-penicillin sensitive; type: functional

Row | MIC [µg/mL] | SMILES
47 | 6.2 (≈ 12.6 µM) | N[C@H](C(=O)NC1C(=O)N2C(C(=O)O)=C(CSc3c[nH]nn3)CSC12)c1ccc2c(c1)OCO2 (stereo partly specified)
48 | 0.8 (≈ 1.78 µM) | CC(=O)OCC1=C(C(=O)O)N2C(=O)C(NC(=O)C(O)c3ccc4c(c3)OCO4)C2SC1 (racemic)
49 | 1.6 (≈ 4.11 µM) | CC1=C(C(=O)O)N2C(=O)C(NC(=O)C(N)c3ccc4c(c3)CCO4)C2SC1 (racemic)
50 | 0.8 (≈ 1.79 µM) | CC(=O)OCC1=C(C(=O)O)N2C(=O)C(NC(=O)[C@H](N)c3ccc4c(c3)CCO4)C2SC1 (stereo partly specified)
51 | 3.1 (≈ 6.9 µM) | CC(=O)OCC1=C(C(=O)O)N2C(=O)C(NC(=O)C(N)c3cccc4c3OCO4)C2SC1 (racemic)
